Wound gap coverage data for two substances are collected here from patent US20240408274A1, “STENTS AND METHODS OF USE” (UNIVERSITY OF CONNECTICUT, priority 2021, published 2024).

This assay concerns Urothelial cell. Description: Urothelial cell scratch assay (wound assay). The format is cell-based. As to conditions: at 48 hours; FIGS. 7A-7B. The source says: As used herein a “scratch assay,” (i.e., a wound assay) is a method to measure two-dimensional cell migration. Six growth factors were selected and tested: EGF, FGF-2, PDGF, TGF-β1, and VEGF.

“EGF: epidermal growth factor, growth factor tested in urothelial scratch assay (NSDSECPLSHDGYCLHDGVCMYIEALDKYACNCVVGYIGERCQYRDLKWWELR; UniProt P01133 971-1023, looked up)”: the wound gap coverage result was “increase”.

As for “IGF-1: insulin-like growth factor 1, growth factor tested in urothelial scratch assay”, the wound gap coverage entry is “increase”.
